Tested on: LG0703-F948-PDC spheroids with HUVEC/MSC, viability
Test: Anticancer human tumor LG0703-F948-PDC patient-derived lung adenocarcinoma cell line growth inhibition [IpAb]
Conditions: for IC50: curve of first compound; for viability, T/C: stronger effect = lower value
Source text: Combinatorial screen of targeted agents with ipatasertib and abemaciclib in multi-cell type tumor spheroids
A high-throughput screen of multi-cell type tumor spheroids was designed to identify active combinations of targeted small molecules and ipatasertib or abemaciclib. Complex spheroids include a stromal component modeled by human endothelial cells (HUVEC) and fibroblasts modeled by human mesenchymal stem cells (MSCs). The concentration ranges selected for each drug and investigational agent were based upon clinically achievable concentrations if the clinical Cmax of the agent was known.
Compounds. The drugs and investigational agents: ipatasertib (NSC767898), abemaciclib(NSC768073), selumetinib (NSC741078), trametinib (758246), adavosertib (NSC754352), everolimus (NSC733504), sapanisertib (NSC764658), vemurafenib (NSC761431), venetoclax (NSC766270), copanlisib (NSC809693), apelisib (NSC765974), palbociblib (NSC758247), vemurafenib (NSC761431), dabrafenib (NSC764134), ravoxertinib (NSC781343), BMS-387032 (NSC767048), sotorasib (NSC818433), talazoparib (NSC767125) and afursertib (NSC778305), were obtained from the National Cancer Institute (NCI) Developmental Therapeutics Program Chemical Repository. The FDA-approved anticancer drug set is available from the NCI Developmental Therapeutics Program. […] The stock solutions were prepared in dimethyl sulfoxide (DMSO, Sigma-Aldrich, St. Louis, MO, cat. D2650) at 800-fold the tested concentration and stored at -70 degrees C prior to their use. All drugs and investigational agents were tested over a range starting from a high concentration at or near the clinical Cmax and decreasing in half-log increments. If the clinical Cmax for an agent had not been determined, the highest concentration tested was 10 microM.
NCI60 Cell Culture. NCI60 cell lines were obtained from the NCI Developmental Therapeutics Program Tumor Repository. For each lot of cells, the Repository performed Applied Biosystems AmpFLSTR Identifiler testing with PCR amplification to confirm consistency with the published Identifier STR profile for each cell line. Cells were kept in continuous culture for no more than 20 passages. The optimal seeding densities for each of the cell lines at each time point assessed were determined prior to performing the concentration response studies. Briefly, the NCI60 human tumor lines were grown as monolayers in RPMI 1640 medium supplemented with 10% FBS and 2 mmol/L L-glutamine.
An additional 9 lines were from the NCI60 cell line panel including MDA-MB-231 breast carcinoma, MDA-MB-468 breast carcinoma, MCF7 breast carcinoma, Hs578T breast carcinoma, MALME-3M melanoma, SK-MEL-2 melanoma, SK-OV-3 ovarian carcinoma, DU-145 prostate carcinoma, PC-3 prostate carcinoma, all cell lines along with major genetic alterations are listed on Table 2. Pooled donor human umbilical vein endothelial cells (HUVEC, Lonza, cat. CC-2519) and human mesenchymal stem cells (hMSC, Lonza, cat. PT-2501) were purchased from Lonza (Walkersville, MD).
PDMR cell lines were grown in complete medium (DC medium): Dulbecco's modified Eagle's medium (DMEM)/F12 supplemented with 5% fetal bovine serum (FBS), 2 mM L-glutamine, 100 U/mL penicillin and 100 µg/ml streptomycin, 0.4 µg/ml hydrocortisone, 10 ng/ml epidermal growth factor (EGF) recombinant human protein, 24 µg/mL adenine, and 0.1 mg/mL primocin. During culture from frozen stock vials, PDMR cells were cultured in the same medium containing 10 µM Y-27632 (see Table 3). The PDCs were cultured in complete DMEM/F12 media without 10 microM Y-27632 dihydrochloride for at least two passages prior to the screen. The pooled donor HUVEC and hMSC were cultured in endothelial cell growth medium 2 (PromoCell, Heidelberg, Germany, cat. C-22011) and mesenchymal stem cell growth medium 2 (PromoCell, cat. C-28009), respectively. For all experiments, HUVEC and hMSC were used at passages </=5.
[…]

[1] = second compound 0.1 µM, first compound 0.0316 µM
[2] = second compound 0.1 µM, first compound 0.1 µM
[3] = second compound 0.1 µM, first compound 0.316 µM
[4] = second compound 0.1 µM, first compound 1 µM
[5] = second compound 0.1 µM, first compound 3.16 µM
[6] = second compound 0.1 µM, first compound 10 µM
[7] = second compound 0.316 µM, first compound 0.0316 µM
[8] = second compound 0.316 µM, first compound 0.1 µM
[9] = second compound 0.316 µM, first compound 0.316 µM
[10] = second compound 0.316 µM, first compound 1 µM
[11] = second compound 0.316 µM, first compound 3.16 µM
[12] = second compound 0.316 µM, first compound 10 µM
[13] = second compound 1 µM, first compound 0.0316 µM
[14] = second compound 1 µM, first compound 0.1 µM
[15] = second compound 1 µM, first compound 0.316 µM
[16] = second compound 1 µM, first compound 1 µM
[17] = second compound 1 µM, first compound 3.16 µM
[18] = second compound 1 µM, first compound 10 µM
[19] = second compound 3.16 µM, first compound 0.0316 µM
[20] = second compound 3.16 µM, first compound 0.1 µM
[21] = second compound 3.16 µM, first compound 0.316 µM
[22] = second compound 3.16 µM, first compound 1 µM
[23] = second compound 3.16 µM, first compound 3.16 µM
[24] = second compound 3.16 µM, first compound 10 µM
[25] = second compound 10 µM, first compound 0.0316 µM
[26] = second compound 10 µM, first compound 0.1 µM
[27] = second compound 10 µM, first compound 0.316 µM
[28] = second compound 10 µM, first compound 1 µM
[29] = second compound 10 µM, first compound 3.16 µM
[30] = second compound 10 µM, first compound 10 µM
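Also: spheroids exposed to compounds for seven days before readout.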
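For viability, T/C in this document: T/C percent relative to DMSO vehicle wells set as 100% viability.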

Row | Compound | IC50 (second compound 0.1 µM) | IC50 (second compound 0.316 µM) | IC50 (second compound 1 µM) | IC50 (second compound 3.16 µM) | IC50 (second compound 10 µM) | viability, T/C [1] | viability, T/C [2] | viability, T/C [3] | viability, T/C [4] | viability, T/C [5] | viability, T/C [6] | viability, T/C [7] | viability, T/C [8] | viability, T/C [9] | viability, T/C [13] | viability, T/C [14] | viability, T/C [19] | viability, T/C [20] | viability, T/C [25] | viability, T/C [26] | other results
1 | C=CCn1c(=O)c2cnc(Nc3ccc(N4CCN(C)CC4)cc3)nc2n1-c1cccc(C(C)(C)O)n1 + CC(C)NCC(C(=O)N1CCN(c2ncnc3c2C(C)CC3O)CC1)c1ccc(Cl)cc1 | 704 nM | 243 nM | < 31.6 nM | < 31.6 nM | < 31.6 nM | 97.8% | 94.6% | 72.4% | 40.5% | 13.2% | 4.37% | 75.6% | 66.5% | 45.6% | 44.7% | 36.7% | 39.3% | 39.6% | 28.6% | 24.1% | viability, T/C [10]: 17.1%; viability, T/C [11]: 5.97%; viability, T/C [12]: 2.34%; viability, T/C [15]: 37.1%; viability, T/C [16]: 16.5%; viability, T/C [17]: 7.72%; viability, T/C [18]: 2.58%; viability, T/C [21]: 28.3%; viability, T/C [22]: 13.2%; viability, T/C [23]: 6.52%; viability, T/C [24]: 3.11%; viability, T/C [27]: 15.9%; viability, T/C [28]: 5.77%; viability, T/C [29]: 5.31%; viability, T/C [30]: 6.51%
2 | CC(C)n1nc(-c2ccc3oc(N)nc3c2)c2c(N)ncnc21 + CC(C)NCC(C(=O)N1CCN(c2ncnc3c2C(C)CC3O)CC1)c1ccc(Cl)cc1 | 2.49 nM | 0.914 nM | < 0.316 nM | < 0.316 nM | < 0.316 nM | 18.9% | 18.9% |  |  |  |  | 16.4% | 12.6% |  | 11.2% | 9.31% | 7.95% | 7.22% | 5.1% | 29.5% | viability, T/C (second compound 0.1 µM, first compound 0.000316 µM): 77.5%; viability, T/C (second compound 0.1 µM, first compound 0.001 µM): 64.8%; viability, T/C (second compound 0.1 µM, first compound 0.00316 µM): 47.5%; viability, T/C (second compound 0.1 µM, first compound 0.01 µM): 25.9%; viability, T/C (second compound 0.316 µM, first compound 0.000316 µM): 65%; viability, T/C (second compound 0.316 µM, first compound 0.001 µM): 49%; viability, T/C (second compound 0.316 µM, first compound 0.00316 µM): 32%; viability, T/C (second compound 0.316 µM, first compound 0.01 µM): 21.4%; viability, T/C (second compound 1 µM, first compound 0.000316 µM): 49.1%; viability, T/C (second compound 1 µM, first compound 0.001 µM): 37%; viability, T/C (second compound 1 µM, first compound 0.00316 µM): 22.8%; viability, T/C (second compound 1 µM, first compound 0.01 µM): 14%; viability, T/C (second compound 3.16 µM, first compound 0.000316 µM): 39.7%; viability, T/C (second compound 3.16 µM, first compound 0.001 µM): 24.9%; viability, T/C (second compound 3.16 µM, first compound 0.00316 µM): 15.1%; viability, T/C (second compound 3.16 µM, first compound 0.01 µM): 8.55%; viability, T/C (second compound 10 µM, first compound 0.000316 µM): 31.7%; viability, T/C (second compound 10 µM, first compound 0.001 µM): 18.1%; viability, T/C (second compound 10 µM, first compound 0.00316 µM): 10.4%; viability, T/C (second compound 10 µM, first compound 0.01 µM): 16.2%
3 | CC1(C)CCC(CN2CCN(c3ccc(C(=O)NS(=O)(=O)c4ccc(NCC5CCOCC5)c([N+](=O)[O-])c4)c(Oc4cnc5[nH]ccc5c4)c3)CC2)=C(c2ccc(Cl)cc2)C1 + CC(C)NCC(C(=O)N1CCN(c2ncnc3c2C(C)CC3O)CC1)c1ccc(Cl)cc1 | 4060 nM | 3190 nM | < 31.6 nM | < 31.6 nM | < 31.6 nM | 90.8% | 82.1% | 77.8% | 72.8% | 64.2% | 10.8% | 71.2% | 60% | 67.4% | 49.2% | 43% | 42.1% | 44.4% | 41% | 43.3% | viability, T/C [10]: 63%; viability, T/C [11]: 50.4%; viability, T/C [12]: 8.61%; viability, T/C [15]: 53%; viability, T/C [16]: 46.5%; viability, T/C [17]: 44.3%; viability, T/C [18]: 7.68%; viability, T/C [21]: 40.9%; viability, T/C [22]: 39.8%; viability, T/C [23]: 30.6%; viability, T/C [24]: 5.93%; viability, T/C [27]: 35.3%; viability, T/C [28]: 37.9%; viability, T/C [29]: 29.2%; viability, T/C [30]: 3.65%
4 | CCCS(=O)(=O)Nc1ccc(F)c(C(=O)c2c[nH]c3ncc(-c4ccc(Cl)cc4)cc23)c1F + CC(C)NCC(C(=O)N1CCN(c2ncnc3c2C(C)CC3O)CC1)c1ccc(Cl)cc1 | > 10000 nM | > 10000 nM | 3780 nM | < 31.6 nM | < 31.6 nM | 85.5% | 89.6% | 85% | 91.2% | 86.2% | 67.5% | 69.2% | 71.7% | 68.4% | 54.1% | 49.6% | 41.1% | 42.8% | 35.6% | 39.7% | viability, T/C [10]: 78.2%; viability, T/C [11]: 75%; viability, T/C [12]: 55.6%; viability, T/C [15]: 50%; viability, T/C [16]: 52.1%; viability, T/C [17]: 56.9%; viability, T/C [18]: 36.5%; viability, T/C [21]: 45%; viability, T/C [22]: 46.3%; viability, T/C [23]: 49.6%; viability, T/C [24]: 25.6%; viability, T/C [27]: 38.3%; viability, T/C [28]: 45.1%; viability, T/C [29]: 44%; viability, T/C [30]: 7.66%

Reference: PubChem BioAssay AID2060330 (Molecular Pharmacology Branch, DTP, NCI, 2025)
